Experimental data published in ChEMBL document CHEMBL1201862, “PubChem BioAssay data set” (2004).
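A five-concentration, 48-hour dose response in 96-well plates underlies each endpoint, interpolated linearly between surrounding concentrations. GI50 marks 50% less growth.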 The source made the active and inactive calls. No stated cut-off is given here; in the data, active = GI50 up to about 1.1 µM and inactive = higher.

Tests used:
Assay in all cases: NCI-60 cell line screen, 48 h
[1] = tested on: 786-0
[2] = tested on: A549
[3] = tested on: ACHN
[4] = tested on: CAKI-1
[5] = tested on: HL-60
[6] = tested on: HOP-62
[7] = tested on: K562
[8] = tested on: MCF7
[9] = tested on: MDA-MB-231
[10] = tested on: MDA-MB-435
[11] = tested on: MOLT-4
[12] = tested on: NCI/ADR-RES
[13] = tested on: OVCAR-5
[14] = tested on: SK-MEL-28
[15] = tested on: SK-MEL-5
[16] = tested on: SR
[17] = tested on: TK-10
[18] = tested on: UACC-257
[19] = tested on: HCC 2998
[20] = tested on: NCI-H460

Measured: GI50

c1ccc2c(c1)-c1nc3ccccc3cc1C2N1CCOCC1 (configuration not stated)
inactive: [1] > 100 µM | [2] > 100 µM | [3] > 100 µM | [4] > 100 µM | [5] 34.5 µM | [6] > 100 µM | [7] > 100 µM | [8] > 100 µM | [9] > 100 µM | [10] > 100 µM | [11] 57.9 µM | [12] 81.3 µM | [13] > 100 µM | [14] > 100 µM | [15] 82.4 µM | [16] > 100 µM | [17] > 100 µM | [18] > 100 µM

CCOC1=NC(O)c2cccn2-c2sccc21 (configuration not stated)
inactive: [1] > 100 µM | [2] 43.2 µM | [3] > 100 µM | [4] > 100 µM | [19] > 100 µM | [6] > 100 µM | [7] 57.8 µM | [8] > 100 µM | [9] > 100 µM | [10] > 100 µM | [11] 51.6 µM | [20] > 100 µM | [12] > 100 µM | [13] > 100 µM | [14] > 100 µM | [15] 96.4 µM | [16] 34.2 µM | [17] 82.4 µM

COC(=O)c1sc2ncc3c(c2c1N)CCCCCC3
inactive: [1] > 100 µM | [2] > 100 µM | [3] > 100 µM | [4] > 100 µM | [19] > 100 µM | [6] 53.6 µM | [7] > 100 µM | [8] > 100 µM | [9] > 100 µM | [10] > 100 µM | [11] > 100 µM | [20] > 100 µM | [12] > 100 µM | [13] > 100 µM | [14] > 100 µM | [15] > 100 µM | [16] > 100 µM | [17] > 100 µM | [18] > 100 µM

Oc1c2cccc1Cc1cccc3c1OCCOCCOCCOCCOc1c(cccc1Cc1cccc(c1O)C3)C2
inactive: [1] > 100 µM | [2] > 100 µM | [3] > 100 µM | [4] > 100 µM | [19] > 100 µM | [6] > 100 µM | [7] > 100 µM | [8] > 100 µM | [9] 89.7 µM | [10] > 100 µM | [11] > 100 µM | [12] 39.3 µM | [13] > 100 µM | [14] > 100 µM | [15] > 100 µM | [16] 2.06 µM | [17] > 100 µM | [18] 66.2 µM

O=C(/C=C1\Nc2ccccc2N\C1=C\C(=O)c1ccc(Cl)cc1)c1ccccc1
inactive: [1] 26 µM | [2] 53 µM | [3] 31.6 µM | [4] 27.8 µM | [19] 74.8 µM | [6] 26.1 µM | [7] 37.5 µM | [8] 38.7 µM | [9] > 100 µM | [10] > 100 µM | [11] 7.87 µM | [20] 19.7 µM | [12] > 100 µM | [13] 64 µM | [14] 42.4 µM | [15] > 100 µM | [16] 20.6 µM | [17] > 100 µM | [18] 53.8 µM

COC(=O)c1c(O)ccc2c1c1c(n2Cc2ccccc2OC)C(=O)c2ccccc2C1
inactive: [1] 78.9 µM | [2] 49.1 µM | [4] 65.3 µM | [5] > 100 µM | [6] 75.5 µM | [7] 70.5 µM | [8] 23.7 µM | [9] 44.1 µM | [10] 45.3 µM | [11] 48.3 µM | [20] 29 µM | [12] 29.3 µM | [14] > 100 µM | [15] 55.6 µM | [16] 77.3 µM | [17] > 100 µM | [18] 34.7 µM

O=C(O)CCC(O)=C1S(=O)(=O)OCCOS1(=O)=O
inactive: [1] > 100 µM | [2] > 100 µM | [3] > 100 µM | [4] > 100 µM | [19] > 100 µM | [6] > 100 µM | [7] > 100 µM | [8] > 100 µM | [9] > 100 µM | [10] > 100 µM | [11] > 100 µM | [20] > 100 µM | [12] > 100 µM | [13] > 100 µM | [14] > 100 µM | [15] > 100 µM | [16] 43.7 µM | [17] > 100 µM | [18] > 100 µM

CC(C)(C)c1ccc(OC(=O)Nc2ccc(O)c(C(=O)O)c2)cc1
inactive: [1] > 100 µM | [2] > 100 µM | [3] > 100 µM | [4] > 100 µM | [5] 30.7 µM | [6] > 100 µM | [7] > 100 µM | [8] > 100 µM | [9] > 100 µM | [10] > 100 µM | [11] > 100 µM | [20] > 100 µM | [12] > 100 µM | [13] > 100 µM | [14] > 100 µM | [15] > 100 µM | [16] > 100 µM | [17] > 100 µM | [18] > 100 µM
